From patent US20230085307A1, “PYRIDAZINONE COMPOUND AND HERBICIDE” (NISSAN CHEMICAL CORPORATION, priority 2019, published 2023)

Tests used:
late watergrass [1] = test: Test Example 1: herbicidal activity, application before weed generation under submerged conditions (Table 16, symbol A); type: in vivo, late watergrass (Echinochloa oryzicola); settings: amount of applied herbicide 320 g/ha
In short: (§1)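 Submerged Wagner pots (alluvial soil, 4 cm water) sown with weed seeds and planted with 2.5-leaf rice seedlings; emulsifiable concentrate diluted in water applied to water surface on sowing day. Held in greenhouse at 25-30 °C; injury scored 0-5 by herbicidal rate after three weeks.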

Japanese bulrush [2] = test: Test Example 1: herbicidal activity, application before weed generation under submerged conditions (Table 16, symbol B); type: in vivo, Japanese bulrush (Schoenoplectus juncoides); settings: amount of applied herbicide 320 g/ha
In short: as §1

oval-leafed pondweed [3] = test: Test Example 1: herbicidal activity, application before weed generation under submerged conditions (Table 16, symbol C); type: in vivo, oval-leafed pondweed (Monochoria vaginalis); settings: amount of applied herbicide 320 g/ha
In short: as §1

late watergrass [4] = test: Test Example 2: herbicidal activity, application during weed generation under submerged conditions (Table 17, symbol A); type: in vivo, late watergrass (Echinochloa oryzicola); settings: AAH 320 g/ha; application during weed generation, submerged conditions
In short: (§2)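 Alluvial soil in Wagner pots was flooded to 4 cm depth and sown with the three weeds together; pots were kept in a greenhouse at 25° C. to 30° C. At the one to two leaf stage, an emulsion formulation diluted in water to a set rate went onto the water surface; scored three weeks later.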

Japanese bulrush [5] = test: Test Example 2: herbicidal activity, application during weed generation under submerged conditions (Table 17, symbol B); type: in vivo, Japanese bulrush (Schoenoplectus juncoides); settings: AAH 320 g/ha; application during weed generation, submerged conditions
In short: as §2

oval-leafed pondweed [6] = test: Test Example 2: herbicidal activity, application during weed generation under submerged conditions (Table 17, symbol C); type: in vivo, oval-leafed pondweed (Monochoria vaginalis); settings: AAH 320 g/ha; application during weed generation, submerged conditions
In short: as §2

barnyard grass [7] = test: Test Example 3: herbicidal effect by foliage application, Wagner pot (Table 18, symbol H); type: in vivo, barnyard grass (Echinochloa crus-galli)
In short: (§3)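 Plants were sown in alluvial soil held under 0.1–0.5 cm standing water and grown 14 days in a greenhouse at 25–30 °C. An emulsifiable formulation, water-diluted to the set dose, was then sprayed onto the foliage, and effects were scored three weeks later using previously defined criteria.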

Chinese sprangletop = test: Test Example 3: herbicidal effect by foliage application, Wagner pot (Table 18, symbol D); type: in vivo, chinese sprangletop (Leptochloa chinensis)
In short: as §3

rice flat sedge = test: Test Example 3: herbicidal effect by foliage application, Wagner pot (Table 18, symbol E); type: in vivo, rice flat sedge (Cyperus iria)
In short: as §3

southern crabgrass [8] = test: Test Example 4: herbicidal effect by soil treatment (Table 19, symbol F); type: in vivo, southern crabgrass (Digitaria ciliaris); settings: amount of applied herbicide 320 g/ha
In short: (§4)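 In this soil treatment, the formulated compound reached the seeds only through the soil: seeds were buried about 1.5 cm deep in sterilized diluvial soil, then the diluted emulsion was sprayed over the surface. After three weeks at 25° C. to 30° C. in a greenhouse, effects were graded on criteria from an earlier test.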

green foxtail [9] = test: Test Example 4: herbicidal effect by soil treatment (Table 19, symbol G); type: in vivo, green foxtail (Setaria viridis); settings: amount of applied herbicide 320 g/ha
In short: as §4

barnyard grass [10] = test: Test Example 4: herbicidal effect by soil treatment (Table 19, symbol H); type: in vivo, barnyard grass (Echinochloa crus-galli); settings: amount of applied herbicide 320 g/ha
In short: as §4

velvetleaf [11] = test: Test Example 4: herbicidal effect by soil treatment (Table 19, symbol M); type: in vivo, velvetleaf (Abutilon theophrasti); settings: amount of applied herbicide 320 g/ha
In short: as §4

redroot pigweed [12] = test: Test Example 4: herbicidal effect by soil treatment (Table 19, symbol N); type: in vivo, redroot pigweed (Amaranthus retroflexus); settings: amount of applied herbicide 320 g/ha
In short: as §4

lambsquarters [13] = test: Test Example 4: herbicidal effect by soil treatment (Table 19, symbol O); type: in vivo, lambsquarters (Chenopodium album); settings: amount of applied herbicide 320 g/ha
In short: as §4

southern crabgrass [14] = test: Test Example 5: herbicidal effect by foliage application, plastic box (Table 20, symbol F); type: in vivo, southern crabgrass (Digitaria ciliaris)
In short: (§5)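 Plants were sown into sterilized diluvial soil under about 1.5 cm cover and kept in a greenhouse at 25° C. to 30° C. Fourteen days on, foliage received an even spray of the diluted emulsion. Herbicidal or crop effect was judged three weeks afterwards.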

green foxtail [15] = test: Test Example 5: herbicidal effect by foliage application, plastic box (Table 20, symbol G); type: in vivo, green foxtail (Setaria viridis)
In short: as §5

barnyard grass [16] = test: Test Example 5: herbicidal effect by foliage application, plastic box (Table 20, symbol H); type: in vivo, barnyard grass (Echinochloa crus-galli)
In short: as §5

velvetleaf [17] = test: Test Example 5: herbicidal effect by foliage application, plastic box (Table 20, symbol M); type: in vivo, velvetleaf (Abutilon theophrasti)
In short: as §5

redroot pigweed [18] = test: Test Example 5: herbicidal effect by foliage application, plastic box (Table 20, symbol N); type: in vivo, redroot pigweed (Amaranthus retroflexus)
In short: as §5

lambsquarters [19] = test: Test Example 5: herbicidal effect by foliage application, plastic box (Table 20, symbol O); type: in vivo, lambsquarters (Chenopodium album)
In short: as §5

wild oat = test: Test Example 5: herbicidal effect by foliage application, plastic box (Table 20, symbol I); type: in vivo, wild oat (Avena fatua); settings: amount of applied herbicide 320 g/ha; foliage application after 14-day growth; evaluated three weeks after application
In short: as §5

blackgrass = test: Test Example 5: herbicidal effect by foliage application, plastic box (Table 20, symbol J); type: in vivo, blackgrass (Alopecurus myosuroides); settings: amount of applied herbicide 320 g/ha; foliage application after 14-day growth; evaluated three weeks after application
In short: as §5

windgrass = test: Test Example 5: herbicidal effect by foliage application, plastic box (Table 20, symbol L); type: in vivo, windgrass (Apera spica-venti); settings: amount of applied herbicide 320 g/ha; foliage application after 14-day growth; evaluated three weeks after application
In short: as §5

chickweed = test: Test Example 5: herbicidal effect by foliage application, plastic box (Table 20, symbol P); type: in vivo, common chickweed (Stellaria media); settings: amount of applied herbicide 320 g/ha; foliage application after 14-day growth; evaluated three weeks after application
In short: as §5

persian speedwell = test: Test Example 5: herbicidal effect by foliage application, plastic box (Table 20, symbol R); type: in vivo, Persian speedwell (Veronica persica); settings: amount of applied herbicide 320 g/ha; foliage application after 14-day growth; evaluated three weeks after application
In short: as §5

[20] = amount of applied herbicide 320 g/ha
[21] = foliage application, 320 g/ha, three weeks after application
[22] = amount of applied herbicide 320 g/ha, foliage application after 14-day growth, evaluated three weeks after application

## COCC[S+]([O-])c1ccc(-c2sc3ccc(F)cc3c2-c2c(O)c(C)nn(C)c2=O)cc1 (centres unmarked) [2-454]
Late watergrass [1]
  Herbicidal effect, A: late watergrass: 3 (Herbicidal rate of 40% or more and less than 70%)
Japanese bulrush [2]
  Herbicidal effect, B: Japanese bulrush: 0 (Herbicidal rate of 5% or less (almost no effect))
oval-leafed pondweed [3]
  Herbicidal effect, C: oval-leafed pondweed: 0 (Herbicidal rate of 5% or less (almost no effect))
Late watergrass [4]
  herbicidal effect rating, A: late watergrass: 2 (Herbicidal rate of 20% or more and less than 40%)
Japanese bulrush [5]
  herbicidal effect rating, B: Japanese bulrush: 0 (Herbicidal rate of 5% or less (almost no effect))
oval-leafed pondweed [6]
  herbicidal effect rating, C: oval-leafed pondweed: 0 (Herbicidal rate of 5% or less (almost no effect))
Barnyard grass [7]; [20]
  herbicidal effect on H: barnyard grass: 5 (Herbicidal rate of 90% or more (almost completely withered))
Chinese sprangletop; [20]
  herbicidal effect on D: Chinese sprangletop: 2 (Herbicidal rate of 20% or more and less than 40%)
Rice flat sedge; [20]
  herbicidal effect on E: rice flat sedge: 5 (Herbicidal rate of 90% or more (almost completely withered))
Southern crabgrass [8]
  herbicidal effect, F: southern crabgrass: 5 (Herbicidal rate of 90% or more (almost completely withered))
Green foxtail [9]
  herbicidal effect, G: green foxtail: 5 (Herbicidal rate of 90% or more (almost completely withered))
Barnyard grass [10]
  herbicidal effect, H: barnyard grass: 4 (Herbicidal rate of 70% or more and less than 90%)
Velvetleaf [11]
  herbicidal effect, M: velvetleaf: 3 (Herbicidal rate of 40% or more and less than 70%)
Redroot pigweed [12]
  herbicidal effect, N: redroot pigweed: 5 (Herbicidal rate of 90% or more (almost completely withered))
Lambsquarters [13]
  herbicidal effect, O: lambsquarters: 4 (Herbicidal rate of 70% or more and less than 90%)
Southern crabgrass [14]; [21]
  F: southern crabgrass, herbicidal effect grade: 5 (Herbicidal rate of 90% or more (almost completely withered))
Green foxtail [15]; [21]
  G: green foxtail, herbicidal effect grade: 5 (Herbicidal rate of 90% or more (almost completely withered))
Barnyard grass [16]; [21]
  H: barnyard grass, herbicidal effect grade: 5 (Herbicidal rate of 90% or more (almost completely withered))
Velvetleaf [17]; [21]
  M: velvetleaf, herbicidal effect grade: 5 (Herbicidal rate of 90% or more (almost completely withered))
Redroot pigweed [18]; [21]
  N: redroot pigweed, herbicidal effect grade: 5 (Herbicidal rate of 90% or more (almost completely withered))
Lambsquarters [19]; [21]
  O: lambsquarters, herbicidal effect grade: 5 (Herbicidal rate of 90% or more (almost completely withered))

## CCCC(=O)Oc1c(C)nn(C)c(=O)c1-c1c(-c2ccc(C(F)(F)F)cc2)sc2cc(F)c(F)cc12 [5-008]
Late watergrass [1]
  Herbicidal effect, A: late watergrass: 3 (Herbicidal rate of 40% or more and less than 70%)
Japanese bulrush [2]
  Herbicidal effect, B: Japanese bulrush: 0 (Herbicidal rate of 5% or less (almost no effect))
oval-leafed pondweed [3]
  Herbicidal effect, C: oval-leafed pondweed: 0 (Herbicidal rate of 5% or less (almost no effect))
Late watergrass [4]
  herbicidal effect rating, A: late watergrass: 2 (Herbicidal rate of 20% or more and less than 40%)
Japanese bulrush [5]
  herbicidal effect rating, B: Japanese bulrush: 0 (Herbicidal rate of 5% or less (almost no effect))
oval-leafed pondweed [6]
  herbicidal effect rating, C: oval-leafed pondweed: 0 (Herbicidal rate of 5% or less (almost no effect))
Barnyard grass [7]; 320 g/ha
  herbicidal effect on barnyard grass (H): 4 (Herbicidal rate of 70% or more and less than 90%)
Chinese sprangletop; 320 g/ha
  herbicidal effect on Chinese sprangletop (D): 0 (Herbicidal rate of 5% or less (almost no effect))
Rice flat sedge; 320 g/ha
  herbicidal effect on rice flat sedge (E): 0 (Herbicidal rate of 5% or less (almost no effect))
Southern crabgrass [14]; [22]
  Herbicidal effect by foliage application, F: southern crabgrass: 0 (Herbicidal rate of 5% or less (almost no effect))
Green foxtail [15]; [22]
  Herbicidal effect by foliage application, G: green foxtail: 0 (Herbicidal rate of 5% or less (almost no effect))
Barnyard grass [16]; [22]
  Herbicidal effect by foliage application, H: barnyard grass: 0 (Herbicidal rate of 5% or less (almost no effect))
Wild oat
  Herbicidal effect by foliage application, I: wild oat: 0 (Herbicidal rate of 5% or less (almost no effect))
blackgrass
  Herbicidal effect by foliage application, J: blackgrass: 0 (Herbicidal rate of 5% or less (almost no effect))
windgrass
  Herbicidal effect by foliage application, L: windgrass: 1 (Herbicidal rate of 5% or more and less than 20%)
Velvetleaf [17]; [22]
  Herbicidal effect by foliage application, M: velvetleaf: 0 (Herbicidal rate of 5% or less (almost no effect))
Redroot pigweed [18]; [22]
  Herbicidal effect by foliage application, N: redroot pigweed: 3 (Herbicidal rate of 40% or more and less than 70%)
Lambsquarters [19]; [22]
  Herbicidal effect by foliage application, O: lambsquarters: 3 (Herbicidal rate of 40% or more and less than 70%)
chickweed
  Herbicidal effect by foliage application, P: chickweed: 4 (Herbicidal rate of 70% or more and less than 90%)
Persian speedwell
  Herbicidal effect by foliage application, R: persian speedwell: 3 (Herbicidal rate of 40% or more and less than 70%)
